Assay results taken from publication PMC10424242, “Macrocyclic Peptidomimetic Plasmepsin X Inhibitors with Potent In Vitro and In Vivo Antimalarial Activity” (Journal of Medicinal Chemistry, 2023).

Tests used:
[1] = molecular target: cathepsin D (CatD) (Homo sapiens, UniProt P07339); experiment: FRET-based CatD inhibition assay (selectivity counter screen); assay type: biochemical
Experimental: (§1) A fluorescence resonance energy transfer (FRET)-based assay was performed to assess the ability of the compounds to inhibit PMIV, CatD, and BACE1. Serial dilutions of test compounds were dispensed in a white 96-well plate. […] The mixture was incubated for 20 min at 37 °C. […] IC50 values were calculated with GraphPad Prism 8.0 using the nonlinear regression, variable slope (four parameters). Compounds were tested in triplicate.

[2] = molecular target: BACE1 (Homo sapiens, UniProt P56817); experiment: FRET-based BACE1 inhibition assay (selectivity counter screen); assay type: biochemical
Experimental: as §1

[3] = Plasma protein binding (rapid equilibrium dialysis); assay type: in vitro ADME; details: pH 7.4, mouse plasma, 2 h at 37 °C
Experimental: Plasma protein binding was performed with rapid equilibrium dialysis (RED) device inserts containing a dialysis membrane with a molecular weight cut-off of 8000 Daltons. Inserts were placed in the single-use RED plate without prior preparation.
The test compound at a concentration of 5 μM was added to mouse plasma and dialyzed against phosphate-buffered saline (PBS, pH 7.4) for 2 h at 37 °C. Propranolol hydrochloride was used as a positive control (high PPB), and fluconazole was used as negative control (low PPB). After dialysis, the drug concentration in the buffer and plasma compartments was quantified by liquid chromatography and tandem mass spectrometry (LC-MS/MS) analysis.

[4] = test system: P. falciparum Pf3D7^0087/N9; experiment: In vivo efficacy against P. falciparum in the TAD PfalcHuMouse model
Experimental: Therapeutic efficacy studies were performed at TAD using a standardized humanized mouse model of P. falciparum malaria[31] with modifications.[34] […] The volume of injections was 1 and 0.7 mL for i.p. or i.v. inoculation, respectively.
The inoculum was obtained from peripheral blood of CO2-euthanized donor mice harboring 5–10% parasitemia.
Before drug administration, each infected mouse was randomly assigned to its corresponding treatment. […] The treatment was administered by oral gavage with 20G straight reusable feeding needles (Fine Science Tools GmbH) at 10 mL·kgbodyweight^–1 unless otherwise stated.
Parasitemia was measured in serial 2 μL of samples of tail blood by flow cytometry and expressed as the % of parasitized erythrocytes with respect to the total erythrocytes in circulation.
The clearance of parasitized erythrocytes from the peripheral blood of mice was assessed by measuring the parasite reduction ratio (PRR) calculated as the ratio between parasitemia at Day n + 2 divided by parasitemia at Day n for each individual of the study.
The parasiticidal effect of drugs in vivo was assessed by measuring the day of recrudescence (DoR) as described.[34] In short, DoR was defined as the day at which parasitemia after drug treatment reached the % parasitemia at treatment inception. Drug-treated mice were deemed cured if there was no detectable parasitemia 60 days after treatment.

[5] = Drug blood concentrations in PfalcHuMice during efficacy testing; assay type: in vivo; details: for total Cmin: PfalcHuMouse, 40 mg/kg p.o.
Experimental: The concentrations of drugs were measured in samples of peripheral blood (25 μL) taken at different times after the first dosing, mixed with 25 μL of Milli-Q H2O, and immediately frozen on a thermal block at −80 °C. The frozen samples were stored at −80 °C until analysis. Blood from control humanized mice was used for the preparation of standard curves, calibration, and quality control purposes. The drugs were extracted from 10 μL of lysates obtained by protein precipitation of blood samples using standard liquid–liquid extraction methods. The samples were analyzed by LC-MS/MS for quantification in a Waters Micromass UPLC-TQD (Waters, Manchester, U.K.). Blood concentration vs time was analyzed by non-compartmental analysis (NCA) using Phoenix WinNonlin vers.9.2 (Certara) or R or Excel (Microsoft), from which exposure-related values (tmax, Cmax, and AUC0–t) were estimated.

[6] = test system: P. falciparum 3D7 parasites; experiment: Microscopy of synchronized P. falciparum cultures treated from ring stage (development and egress); assay type: cell-based; details: 20 nM
Experimental: Asexual blood-stage forms of P. falciparum strains 3D7 and Dd2 were maintained at 37 °C in an atmosphere of 1% O2, 5% CO2, and 94% N2 in human RBCs in RPMI 1640 medium containing AlbuMAX II (Thermo Fisher Scientific) and supplemented with 2 mM L-glutamine. The synchronization of parasite cultures was as described previously.[39] Briefly, this involved isolating mature schizont forms by centrifugation over cushions of 70% (v/v) isotonic Percoll (GE Healthcare, Life Sciences) and then allowing the parasites to undergo rupture in the presence of fresh RBCs for 2 h under gentle shaking conditions (100 rpm). Residual schizonts were then removed through a second Percoll separation, followed by treatment with 5% (w/v) sorbitol to finally obtain a highly synchronized preparation of newly invaded ring-stage parasites.
Growth stage progression and parasite morphology were also monitored by microscopic examination at selected time points using Giemsa-stained thin blood films.

[7] = test system: maturation of the PMX substrate SUB1 (p54 to p47); experiment: Western blot of SUB1 maturation in treated schizonts; assay type: cell-based, P. falciparum; details: 20 nM, 44 h
Experimental: This phenotype is characteristic of the inhibition of PMX.
(§2) Synchronous parasite cultures were cultured from ring to schizont stage (∼44 h) in the presence of DMSO alone (0.04% v/v; control) or macrocycle compounds (20 nM final concentration). Schizonts were isolated by Percoll enrichment (still in the presence of the test compound), then either immediately frozen or further incubated in the absence of the drug but in the presence of C2 (1 μM) for 1 h at 37°C in the absence of added RBCs or for 3.5 h in the presence of added RBCs. The schizonts without added RBCs were then frozen too, and all schizont samples were then thawed into CHAPS–urea extraction buffer, subjected to sodium dodecyl sulfate-polyacrylamide gel electrophoresis (SDS-PAGE), and analyzed by Western blot, probing with antibodies against SUB1 or RAP1. For schizonts cultured in the presence of added RBCs, ring formation was assessed in two ways: cultures were examined microscopically by Giemsa stain of thin films and were also fixed with glutaraldehyde and processed for quantification of ring formation by flow cytometry as described above.

[8] = test system: maturation of RAP1, substrate of PMIX; experiment: Western blot of RAP1 maturation in treated schizonts; assay type: cell-based, P. falciparum; details: 20 nM, 44 h
Excerpt: Figure 4 Macrocycle PMX inhibitors have no effect on intraerythrocytic parasite maturation but prevent egress and maturation of SUB1. […] Scale bar, 20 μm. (B) Simplified schematic of proteolytic maturation of the egress effector SUB1. Conversion of the precursor form to p54 is through autocatalytic removal[32] of the prodomain region (PD), whereas conversion of p54 to p47 is mediated by PMX.[15],[16],[33] (C) Left, Western blot analysis of P. falciparum 3D7 schizonts allowed to mature in the presence of the indicated macrocycle compounds (20 nM), showing defective SUB1 maturation in parasites treated with the indicated macrocycle compounds. Right, Western blot of the same extracts probed with a monoclonal antibody (mAb) specific to the rhoptry protein RAP1, which is a substrate for cleavage by the related P. falciparum protease PMIX. The compounds had no discernible effect on the maturation of RAP1. The results shown are typical of 3 independent experiments.
as §2

[9] = test system: SUB1 p54 to p47 conversion (PMX activity); experiment: Washout assay, SUB1 maturation by Western blot; assay type: cell-based, P. falciparum; details: 20 nM ∼44 h, C2 1 μM for 1 h
Experimental: The schizont cultures lacking added RBCs were supplemented with compound C2, which blocks the discharge of exonemes, the parasite secretory organelles in which PMX and SUB1 are stored before egress. The schizonts without added RBCs were sampled for Western blot analysis, while the schizont cultures containing RBCs were examined by microscopy and flow cytometry after a further 4 h in culture to quantify schizont rupture and new ring formation.
as §2

cathepsin D (CatD), sequence (P07339 65-412): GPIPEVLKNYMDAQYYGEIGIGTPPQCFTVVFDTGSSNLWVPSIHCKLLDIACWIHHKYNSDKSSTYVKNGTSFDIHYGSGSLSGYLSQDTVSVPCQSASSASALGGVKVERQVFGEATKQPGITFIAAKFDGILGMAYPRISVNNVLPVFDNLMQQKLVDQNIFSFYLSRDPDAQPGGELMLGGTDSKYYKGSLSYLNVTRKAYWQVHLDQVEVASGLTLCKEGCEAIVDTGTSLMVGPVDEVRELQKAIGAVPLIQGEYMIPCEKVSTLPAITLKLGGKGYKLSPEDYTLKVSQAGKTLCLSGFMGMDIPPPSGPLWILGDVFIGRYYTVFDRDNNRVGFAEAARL
BACE1, sequence (P56817 46-501): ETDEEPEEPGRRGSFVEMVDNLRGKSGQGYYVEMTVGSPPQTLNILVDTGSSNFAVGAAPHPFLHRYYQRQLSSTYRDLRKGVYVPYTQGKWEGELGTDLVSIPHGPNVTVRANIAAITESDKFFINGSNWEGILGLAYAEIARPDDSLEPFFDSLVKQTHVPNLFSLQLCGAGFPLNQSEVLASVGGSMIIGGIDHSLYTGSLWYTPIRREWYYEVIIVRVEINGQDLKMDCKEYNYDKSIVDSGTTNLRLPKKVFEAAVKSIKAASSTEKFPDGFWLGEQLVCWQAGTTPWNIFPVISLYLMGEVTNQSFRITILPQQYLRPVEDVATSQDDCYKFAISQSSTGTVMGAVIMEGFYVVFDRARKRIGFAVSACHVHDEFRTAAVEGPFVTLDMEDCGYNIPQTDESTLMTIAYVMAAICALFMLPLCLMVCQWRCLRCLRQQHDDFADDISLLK

CCCN1CCCCCc2cccc(c2)C[C@@H]([C@H](O)CNC(C)(C)c2cccc(OC)c2)NC(=O)c2cccc(c2)C1=O [7k, (S)-4-((R)-1-Hydroxy-2-((2-(3-methoxyphenyl)propan-2-yl)amino)ethyl)-12-propyl-3,12-diaza-1,6(1,3)-dibenzenacyclotridecaphane-2,13-dione]
IC50 [1]: 330 ± 20 nM | IC50 [2]: 2030 ± 100 nM | fraction unbound at 2 h, 5 µM [3]: 0.0027 | clearance of parasitemia from peripheral blood ([4]; 40 mg/kg p.o., UID, BID or TID): cleared parasitemia from the peripheral blood in a dose-dependent manner | parasite clearance rate compared with chloroquine ([4]; chloroquine at 10 mg/kg for 2 days in the same system): comparable to those produced by chloroquine at 10 mg/kg for 2 days | parasite killing in vivo (DoR versus exposure) compared with chloroquine ([4]; comparable treatment regimens, chloroquine historical data): as potent as chloroquine | distribution of parasite stages in peripheral blood ([4]; day 3 of the assay, flow cytometry and microscopy): relative accumulation of circulating mature schizonts compared to untreated controls | effect on parasite burden ([4]; three times a day for 4 days at 40 mg/kg, oral): eliminated P. falciparum from peripheral blood at a rate comparable to chloroquine single-dose administration for 2 days (10 mg/kg) | total Cmin ([5]; BID): 32 ng/mL | total Cmin ([5]; TID): 85 ng/mL | total Cmin ([5]; UID): 51 ng/mL | pharmacokinetic modeling of concentrations over the period of administration ([5]; plasma concentration at 71.0, 72.5, 73.0 and 78.0 hours post-treatment): rapid absorption with no accumulation | intraerythrocytic development of ring-stage parasites to schizont stage ([6]; 44 h): Development of ring-stage parasites to the multinucleated schizont stage occurred similarly in all cultures | schizont rupture (egress) and appearance of new rings ([6]; 44 h and extended incubation): schizont rupture and appearance of new rings did not occur | maturation of SUB1 (p54 to p47) [7]: clear defect in maturation of the PMX substrate SUB1 | maturation of RAP (PMIX substrate) [8]: do not affect PMIX activity at these concentrations | SUB1 p54 to p47 conversion after washout [9]: no conversion of SUB1 p54 to p47 occurred
